In general, IC50 refers to the concentration that gives 50% inhibition.

One series deals with T1, recombinant human CPR (Homo sapiens, UniProt P16435).
T1 sequence (P16435 1-677): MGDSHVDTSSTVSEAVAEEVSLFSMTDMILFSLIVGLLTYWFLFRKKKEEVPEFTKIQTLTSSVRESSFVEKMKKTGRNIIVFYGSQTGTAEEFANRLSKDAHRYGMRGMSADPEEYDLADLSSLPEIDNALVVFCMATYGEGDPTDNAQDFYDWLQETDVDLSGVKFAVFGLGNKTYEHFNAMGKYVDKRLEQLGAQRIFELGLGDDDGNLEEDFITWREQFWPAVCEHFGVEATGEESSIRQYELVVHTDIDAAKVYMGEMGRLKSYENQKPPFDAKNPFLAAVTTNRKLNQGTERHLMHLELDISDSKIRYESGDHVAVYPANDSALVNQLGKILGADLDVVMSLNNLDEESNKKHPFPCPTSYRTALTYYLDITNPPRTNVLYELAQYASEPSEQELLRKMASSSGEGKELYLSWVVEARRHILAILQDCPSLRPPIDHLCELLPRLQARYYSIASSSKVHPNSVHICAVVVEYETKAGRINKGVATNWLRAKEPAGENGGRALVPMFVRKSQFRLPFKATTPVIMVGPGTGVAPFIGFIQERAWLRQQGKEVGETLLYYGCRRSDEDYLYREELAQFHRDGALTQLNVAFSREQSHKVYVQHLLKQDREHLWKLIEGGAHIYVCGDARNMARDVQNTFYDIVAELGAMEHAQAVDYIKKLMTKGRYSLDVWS
In words: CPR-mediated redox cycling, hydroxyl radical formation. As to conditions: menadione; Fe/EDTA, terephthalate. The class given is biochemical.

For another series, the target named is T2, CYP2B6 (Homo sapiens, UniProt P20813).
T2 sequence (P20813 1-491): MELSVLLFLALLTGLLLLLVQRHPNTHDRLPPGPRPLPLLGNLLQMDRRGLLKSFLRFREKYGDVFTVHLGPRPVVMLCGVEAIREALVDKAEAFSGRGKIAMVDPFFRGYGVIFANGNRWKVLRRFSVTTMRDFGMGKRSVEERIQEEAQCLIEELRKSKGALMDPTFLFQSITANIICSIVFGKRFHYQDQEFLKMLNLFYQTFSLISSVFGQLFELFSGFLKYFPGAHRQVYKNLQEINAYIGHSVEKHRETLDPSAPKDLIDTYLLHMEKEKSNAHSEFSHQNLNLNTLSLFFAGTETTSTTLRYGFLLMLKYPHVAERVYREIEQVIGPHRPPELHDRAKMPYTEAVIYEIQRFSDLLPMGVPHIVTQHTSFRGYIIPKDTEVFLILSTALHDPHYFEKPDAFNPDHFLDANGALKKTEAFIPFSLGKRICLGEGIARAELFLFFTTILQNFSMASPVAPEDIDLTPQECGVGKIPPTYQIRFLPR

A further series addresses T3, CYP1B1 (Homo sapiens, UniProt Q16678).
T3 sequence (Q16678 1-543): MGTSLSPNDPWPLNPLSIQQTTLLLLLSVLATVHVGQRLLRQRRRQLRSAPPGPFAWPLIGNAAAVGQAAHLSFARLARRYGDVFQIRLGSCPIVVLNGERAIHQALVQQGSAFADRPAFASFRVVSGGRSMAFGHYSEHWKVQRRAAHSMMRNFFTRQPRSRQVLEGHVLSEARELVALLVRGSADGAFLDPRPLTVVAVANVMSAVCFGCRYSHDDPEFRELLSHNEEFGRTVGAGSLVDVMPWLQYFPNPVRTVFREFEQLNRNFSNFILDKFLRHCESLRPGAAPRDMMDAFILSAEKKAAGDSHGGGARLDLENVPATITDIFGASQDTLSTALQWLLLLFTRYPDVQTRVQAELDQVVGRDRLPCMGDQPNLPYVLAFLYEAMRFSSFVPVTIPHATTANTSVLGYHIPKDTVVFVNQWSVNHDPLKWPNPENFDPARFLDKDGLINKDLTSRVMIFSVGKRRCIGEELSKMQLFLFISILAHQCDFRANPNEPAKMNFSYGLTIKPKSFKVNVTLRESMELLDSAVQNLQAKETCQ
T3 sequence (P16435 2-677 partner): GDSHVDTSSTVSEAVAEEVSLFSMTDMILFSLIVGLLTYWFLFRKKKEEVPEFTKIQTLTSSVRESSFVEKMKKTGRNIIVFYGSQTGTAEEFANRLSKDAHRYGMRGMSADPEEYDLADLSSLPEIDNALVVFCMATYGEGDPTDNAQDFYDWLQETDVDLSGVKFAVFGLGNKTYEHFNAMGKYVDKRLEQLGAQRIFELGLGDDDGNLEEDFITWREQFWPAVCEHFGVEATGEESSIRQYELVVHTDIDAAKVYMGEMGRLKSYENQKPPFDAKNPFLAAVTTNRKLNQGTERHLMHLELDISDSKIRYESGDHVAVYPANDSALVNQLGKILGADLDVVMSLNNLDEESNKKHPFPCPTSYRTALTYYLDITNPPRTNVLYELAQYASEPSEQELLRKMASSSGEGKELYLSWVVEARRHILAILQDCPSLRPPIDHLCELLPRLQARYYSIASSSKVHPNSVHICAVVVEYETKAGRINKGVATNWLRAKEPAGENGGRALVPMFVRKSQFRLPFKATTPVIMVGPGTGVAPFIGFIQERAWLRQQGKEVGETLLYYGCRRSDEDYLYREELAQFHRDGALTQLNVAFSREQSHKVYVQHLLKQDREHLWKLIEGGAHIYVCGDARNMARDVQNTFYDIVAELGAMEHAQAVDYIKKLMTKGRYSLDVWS
Put plainly: recombinant CYP activity with fluorogenic substrate. It is filed as biochemical.

In another series the target is CYP2C9 (Homo sapiens, UniProt P11712). Described as above. It is filed as biochemical.
Chain of CYP2C9 (P11712 whole entry, one chain of several): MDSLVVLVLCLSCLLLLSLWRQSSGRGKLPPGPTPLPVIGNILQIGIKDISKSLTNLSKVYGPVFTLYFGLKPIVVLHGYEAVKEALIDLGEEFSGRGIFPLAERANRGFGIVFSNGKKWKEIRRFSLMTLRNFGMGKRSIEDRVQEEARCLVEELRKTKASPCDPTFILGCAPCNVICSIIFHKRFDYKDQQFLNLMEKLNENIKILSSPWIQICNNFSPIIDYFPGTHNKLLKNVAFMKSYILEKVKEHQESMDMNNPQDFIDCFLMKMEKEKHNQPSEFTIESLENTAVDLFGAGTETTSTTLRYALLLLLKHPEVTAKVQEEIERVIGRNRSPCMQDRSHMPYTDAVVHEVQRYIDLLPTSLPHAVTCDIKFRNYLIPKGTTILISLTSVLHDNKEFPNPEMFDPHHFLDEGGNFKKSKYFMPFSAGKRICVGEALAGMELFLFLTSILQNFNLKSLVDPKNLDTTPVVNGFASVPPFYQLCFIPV
The target of the next series is CYP2D6 (Homo sapiens, UniProt P10635). The description is as above.
Chain of CYP2D6 (P10635 whole entry, one chain of several): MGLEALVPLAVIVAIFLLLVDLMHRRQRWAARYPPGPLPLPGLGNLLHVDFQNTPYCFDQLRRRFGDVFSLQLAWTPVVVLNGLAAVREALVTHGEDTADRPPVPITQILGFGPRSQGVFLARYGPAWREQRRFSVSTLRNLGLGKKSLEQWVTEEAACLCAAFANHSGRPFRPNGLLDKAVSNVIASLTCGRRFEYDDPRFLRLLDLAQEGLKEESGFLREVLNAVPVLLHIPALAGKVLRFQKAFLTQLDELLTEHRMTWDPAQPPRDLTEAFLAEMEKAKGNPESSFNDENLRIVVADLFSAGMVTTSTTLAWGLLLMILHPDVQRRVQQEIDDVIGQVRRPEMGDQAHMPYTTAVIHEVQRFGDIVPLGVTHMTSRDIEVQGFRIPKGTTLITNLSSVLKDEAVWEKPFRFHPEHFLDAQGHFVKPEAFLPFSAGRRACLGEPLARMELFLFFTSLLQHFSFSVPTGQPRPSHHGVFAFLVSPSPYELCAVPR
The target of the next series is T4, CYP1A2 (Homo sapiens, UniProt P05177).
T4 sequence (P05177 2-516 limits assumed): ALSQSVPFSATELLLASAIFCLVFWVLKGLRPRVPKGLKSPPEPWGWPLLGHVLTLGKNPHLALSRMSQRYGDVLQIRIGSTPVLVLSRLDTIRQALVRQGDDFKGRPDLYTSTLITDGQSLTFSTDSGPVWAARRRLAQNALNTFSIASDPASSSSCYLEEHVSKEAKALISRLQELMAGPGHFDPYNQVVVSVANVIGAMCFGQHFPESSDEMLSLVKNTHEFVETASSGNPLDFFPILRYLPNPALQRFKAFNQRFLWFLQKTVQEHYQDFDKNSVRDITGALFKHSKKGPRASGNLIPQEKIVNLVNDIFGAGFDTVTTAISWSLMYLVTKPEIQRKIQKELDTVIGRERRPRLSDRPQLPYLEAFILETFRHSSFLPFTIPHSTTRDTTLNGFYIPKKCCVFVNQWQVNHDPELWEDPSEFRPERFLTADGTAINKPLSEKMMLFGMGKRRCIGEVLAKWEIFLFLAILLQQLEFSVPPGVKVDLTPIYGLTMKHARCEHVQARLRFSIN

For the compound `CC1=CC(=O)c2ccccc2C1=O` [menadione, 2-methylnaphthalene-1,4-dione], the “Vmax for formation of 2-hydroxyterephthalate, a marker of hydroxyl radicals” value at recombinant human CPR was determined as 1.2 µmol/min/mg CPR protein. Further, the paraoxon formation result on CYP2B6 and on CYP1A2 was “marked decrease” each time. For the same compound, the IC50 at CYP1B1 amounted to 7.02 ± 0.53 µM; on CYP2C9, 8.91 ± 0.57 µM; on CYP2D6, 4.6 ± 0.87 µM.

These data come from article PMC4579064 (Toxicology and applied pharmacology, 2015).
